Source: article PMC10412597, “Small molecule branched-chain ketoacid dehydrogenase kinase (BDK) inhibitors with opposing effects on BDK protein levels” (Nature Communications, 2023)

Columns and labels:
Parameters in all cases: Invitrogen kinase panel, per cent inhibition of kinase activity
PI4KA = PI4KA (Homo sapiens, UniProt P42356); conditions: inhibitor
Description: (§1) To discover a potent and selective BDK inhibitor, a subset of the Pfizer compound collection was screened. […] Off target activity was assessed in both CEREP and kinase panels (Supplementary Tables 2, 3).

CHEK1 = molecular target: T1, CHEK1 (Homo sapiens, UniProt O14757); conditions: 10 µM, inhibitor
T1 sequence (O14757 1-476): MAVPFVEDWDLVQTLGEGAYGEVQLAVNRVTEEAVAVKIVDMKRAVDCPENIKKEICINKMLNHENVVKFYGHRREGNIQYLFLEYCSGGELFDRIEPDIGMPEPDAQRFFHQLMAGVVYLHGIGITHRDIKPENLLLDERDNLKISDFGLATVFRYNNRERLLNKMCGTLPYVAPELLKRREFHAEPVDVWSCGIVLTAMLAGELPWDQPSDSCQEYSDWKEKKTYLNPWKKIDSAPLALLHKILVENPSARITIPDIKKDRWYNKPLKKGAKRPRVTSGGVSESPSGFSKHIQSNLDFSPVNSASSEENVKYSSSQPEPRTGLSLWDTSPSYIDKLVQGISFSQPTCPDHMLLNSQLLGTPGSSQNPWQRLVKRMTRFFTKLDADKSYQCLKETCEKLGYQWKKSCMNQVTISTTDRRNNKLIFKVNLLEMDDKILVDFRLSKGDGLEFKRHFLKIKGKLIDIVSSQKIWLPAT
Description: as §1

Rsk2 = molecular target: T2, Rsk2 (Homo sapiens, UniProt P51812); conditions: 10 µM, inhibitor
T2 construct: gene RPS6KA3
Description: as §1

MAPK14 = MAPK14 (Homo sapiens, UniProt Q16539); conditions: 10 µM, inhibitor
Description: as §1

SRC = SRC (Homo sapiens, UniProt P12931); conditions: 10 µM, inhibitor
Description: as §1

IRAK4 = molecular target: T3, IRAK4 (Homo sapiens, UniProt Q9NWZ3); conditions: 10 µM, inhibitor
T3 sequence (Q9NWZ3 1-460): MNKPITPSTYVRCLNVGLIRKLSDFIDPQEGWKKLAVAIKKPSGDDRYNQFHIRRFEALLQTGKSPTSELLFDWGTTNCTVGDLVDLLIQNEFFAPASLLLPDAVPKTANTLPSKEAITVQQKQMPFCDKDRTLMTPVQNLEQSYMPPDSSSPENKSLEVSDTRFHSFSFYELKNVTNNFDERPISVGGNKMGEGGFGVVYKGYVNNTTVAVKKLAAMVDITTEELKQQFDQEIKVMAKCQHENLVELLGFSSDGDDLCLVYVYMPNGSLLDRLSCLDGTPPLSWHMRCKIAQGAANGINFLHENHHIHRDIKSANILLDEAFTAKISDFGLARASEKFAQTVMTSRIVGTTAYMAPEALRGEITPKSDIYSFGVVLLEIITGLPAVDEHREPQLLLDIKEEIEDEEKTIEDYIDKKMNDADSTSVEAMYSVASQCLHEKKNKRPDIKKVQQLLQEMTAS
Description: as §1

MSK1 = molecular target: T4, MSK1 (Homo sapiens, UniProt O75582); conditions: 10 µM, inhibitor
T4 construct: gene RPS6KA5
Description: as §1

MYLK2 = MYLK2 (Homo sapiens, UniProt Q9H1R3); conditions: 10 µM, inhibitor
Description: as §1

[1] = molecular target: T5, Eukaryotic elongation factor-2 kinase (Homo sapiens, UniProt O00418); conditions: 10 µM, inhibitor
T5 construct: gene EEF2K
Description: as §1

PIK3C3 = PIK3C3 (Homo sapiens, UniProt Q8NEB9); conditions: 10 µM, inhibitor
Description: as §1

HER4 = molecular target: T6, HER4 (Homo sapiens, UniProt Q15303); conditions: 10 µM, inhibitor
T6 construct: gene ERBB4
Description: as §1

INSR = INSR (Homo sapiens, UniProt P06213); conditions: 10 µM, inhibitor
Description: as §1

[2] = molecular target: T7, IkB kinase beta subunit (IKK BETA) (Homo sapiens, UniProt O14920); conditions: 10 µM, inhibitor
T7 construct: gene IKBKB
Description: as §1

PRKDC = PRKDC (Homo sapiens, UniProt P78527); conditions: 10 µM, inhibitor
Description: as §1

[3] = molecular target: T8, Phosphorylase B kinase gamma catalytic chain skeletal muscle isoform (Homo sapiens, UniProt Q16816); conditions: 10 µM, inhibitor
T8 construct: gene PHKG1
Description: as §1

MAPKAPK5 = MAPKAPK5 (Homo sapiens, UniProt Q8IW41); conditions: 10 µM, inhibitor
Description: as §1

CAMK2A = CAMK2A (Homo sapiens, UniProt Q9UQM7); conditions: 10 µM, inhibitor
Description: as §1

CSK tyrosine Kinase = CSK tyrosine Kinase (Homo sapiens, UniProt P41240); conditions: 10 µM, inhibitor
Description: as §1

KDR = KDR (Homo sapiens, UniProt P35968); conditions: 10 µM, inhibitor
Description: as §1

KDR, sequence (P35968 whole entry): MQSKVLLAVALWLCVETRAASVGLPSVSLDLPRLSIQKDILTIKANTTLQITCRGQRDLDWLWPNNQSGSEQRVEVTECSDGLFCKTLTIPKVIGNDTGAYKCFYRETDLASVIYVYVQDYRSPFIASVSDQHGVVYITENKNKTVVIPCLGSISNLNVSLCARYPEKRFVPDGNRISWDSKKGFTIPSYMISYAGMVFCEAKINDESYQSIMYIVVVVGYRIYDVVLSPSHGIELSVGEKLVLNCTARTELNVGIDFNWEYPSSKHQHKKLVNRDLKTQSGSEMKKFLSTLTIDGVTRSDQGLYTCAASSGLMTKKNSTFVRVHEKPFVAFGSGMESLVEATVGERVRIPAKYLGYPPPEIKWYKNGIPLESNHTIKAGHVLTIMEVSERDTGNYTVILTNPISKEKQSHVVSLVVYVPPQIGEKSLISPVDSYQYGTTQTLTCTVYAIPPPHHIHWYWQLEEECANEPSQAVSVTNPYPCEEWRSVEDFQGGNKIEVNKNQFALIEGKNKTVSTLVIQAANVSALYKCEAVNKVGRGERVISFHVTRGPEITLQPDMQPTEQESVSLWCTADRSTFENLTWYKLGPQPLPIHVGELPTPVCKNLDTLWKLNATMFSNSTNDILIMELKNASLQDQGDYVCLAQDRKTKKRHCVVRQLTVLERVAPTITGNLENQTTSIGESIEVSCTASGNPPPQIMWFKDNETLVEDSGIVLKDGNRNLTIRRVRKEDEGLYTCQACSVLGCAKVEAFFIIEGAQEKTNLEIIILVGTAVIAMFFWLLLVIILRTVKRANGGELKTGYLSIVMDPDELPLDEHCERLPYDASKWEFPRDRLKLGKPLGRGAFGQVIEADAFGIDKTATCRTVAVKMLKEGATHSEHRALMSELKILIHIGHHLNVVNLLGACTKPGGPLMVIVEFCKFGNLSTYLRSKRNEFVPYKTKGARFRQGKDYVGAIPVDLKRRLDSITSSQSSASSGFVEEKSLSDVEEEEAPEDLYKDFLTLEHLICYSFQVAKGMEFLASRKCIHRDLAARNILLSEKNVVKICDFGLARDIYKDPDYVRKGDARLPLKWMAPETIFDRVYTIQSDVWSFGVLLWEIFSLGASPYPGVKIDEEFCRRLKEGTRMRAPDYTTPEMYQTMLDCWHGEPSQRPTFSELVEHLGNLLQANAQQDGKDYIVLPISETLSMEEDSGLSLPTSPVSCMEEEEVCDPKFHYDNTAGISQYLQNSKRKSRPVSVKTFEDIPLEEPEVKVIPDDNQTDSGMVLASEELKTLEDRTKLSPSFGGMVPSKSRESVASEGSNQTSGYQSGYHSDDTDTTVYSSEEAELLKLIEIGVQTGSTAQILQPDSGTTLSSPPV
MYLK2, sequence (Q9H1R3 whole entry): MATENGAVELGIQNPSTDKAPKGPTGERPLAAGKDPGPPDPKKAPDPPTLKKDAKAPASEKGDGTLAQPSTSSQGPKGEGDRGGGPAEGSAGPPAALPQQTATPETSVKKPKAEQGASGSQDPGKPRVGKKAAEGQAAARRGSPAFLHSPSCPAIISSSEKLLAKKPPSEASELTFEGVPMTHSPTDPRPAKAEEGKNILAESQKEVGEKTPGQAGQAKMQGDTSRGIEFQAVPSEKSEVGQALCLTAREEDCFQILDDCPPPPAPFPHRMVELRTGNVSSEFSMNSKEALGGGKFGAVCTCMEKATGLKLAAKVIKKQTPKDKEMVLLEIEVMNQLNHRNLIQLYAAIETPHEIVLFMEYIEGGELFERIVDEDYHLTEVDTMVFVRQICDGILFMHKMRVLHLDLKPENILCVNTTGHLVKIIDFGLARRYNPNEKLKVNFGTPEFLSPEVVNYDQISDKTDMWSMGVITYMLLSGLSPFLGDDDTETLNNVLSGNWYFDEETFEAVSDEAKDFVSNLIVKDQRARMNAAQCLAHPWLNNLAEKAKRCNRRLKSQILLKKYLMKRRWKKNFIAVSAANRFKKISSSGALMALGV
CAMK2A, sequence (Q9UQM7 whole entry): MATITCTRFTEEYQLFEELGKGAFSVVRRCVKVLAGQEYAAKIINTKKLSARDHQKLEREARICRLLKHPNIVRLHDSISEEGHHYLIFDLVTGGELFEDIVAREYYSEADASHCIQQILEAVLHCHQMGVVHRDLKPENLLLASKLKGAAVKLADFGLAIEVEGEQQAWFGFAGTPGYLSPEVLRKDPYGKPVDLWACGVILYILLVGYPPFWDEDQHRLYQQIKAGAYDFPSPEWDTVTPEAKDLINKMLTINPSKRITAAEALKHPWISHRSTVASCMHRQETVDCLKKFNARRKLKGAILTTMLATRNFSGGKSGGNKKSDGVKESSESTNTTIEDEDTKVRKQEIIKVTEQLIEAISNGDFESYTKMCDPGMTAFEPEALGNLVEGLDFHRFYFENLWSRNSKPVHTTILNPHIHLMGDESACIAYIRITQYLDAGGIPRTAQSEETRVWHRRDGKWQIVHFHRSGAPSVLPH
SRC, sequence (P12931 whole entry): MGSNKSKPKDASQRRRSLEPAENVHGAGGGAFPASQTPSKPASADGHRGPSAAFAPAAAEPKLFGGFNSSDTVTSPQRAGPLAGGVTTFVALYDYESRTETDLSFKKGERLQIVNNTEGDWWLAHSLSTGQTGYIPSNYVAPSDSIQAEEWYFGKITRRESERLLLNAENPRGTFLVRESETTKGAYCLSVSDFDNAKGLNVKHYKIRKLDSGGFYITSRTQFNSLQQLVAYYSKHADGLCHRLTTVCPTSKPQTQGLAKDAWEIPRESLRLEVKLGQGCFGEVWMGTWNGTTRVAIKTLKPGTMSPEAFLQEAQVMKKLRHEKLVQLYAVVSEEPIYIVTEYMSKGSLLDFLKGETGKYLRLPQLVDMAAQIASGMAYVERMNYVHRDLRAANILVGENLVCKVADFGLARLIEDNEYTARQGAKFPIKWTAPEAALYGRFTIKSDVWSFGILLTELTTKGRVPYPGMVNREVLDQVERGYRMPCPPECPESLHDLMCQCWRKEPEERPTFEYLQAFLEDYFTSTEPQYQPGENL
MAPK14, sequence (Q16539 whole entry): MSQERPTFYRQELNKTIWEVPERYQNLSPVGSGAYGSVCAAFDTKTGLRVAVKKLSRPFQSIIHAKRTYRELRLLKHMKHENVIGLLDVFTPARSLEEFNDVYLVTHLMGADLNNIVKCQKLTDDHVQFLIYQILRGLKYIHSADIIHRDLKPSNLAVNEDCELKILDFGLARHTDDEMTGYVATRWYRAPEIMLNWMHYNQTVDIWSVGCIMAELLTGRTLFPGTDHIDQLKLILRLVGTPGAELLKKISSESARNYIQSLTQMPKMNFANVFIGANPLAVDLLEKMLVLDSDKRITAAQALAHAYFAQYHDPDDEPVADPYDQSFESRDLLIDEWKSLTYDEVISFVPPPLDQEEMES
INSR, sequence (P06213 whole entry): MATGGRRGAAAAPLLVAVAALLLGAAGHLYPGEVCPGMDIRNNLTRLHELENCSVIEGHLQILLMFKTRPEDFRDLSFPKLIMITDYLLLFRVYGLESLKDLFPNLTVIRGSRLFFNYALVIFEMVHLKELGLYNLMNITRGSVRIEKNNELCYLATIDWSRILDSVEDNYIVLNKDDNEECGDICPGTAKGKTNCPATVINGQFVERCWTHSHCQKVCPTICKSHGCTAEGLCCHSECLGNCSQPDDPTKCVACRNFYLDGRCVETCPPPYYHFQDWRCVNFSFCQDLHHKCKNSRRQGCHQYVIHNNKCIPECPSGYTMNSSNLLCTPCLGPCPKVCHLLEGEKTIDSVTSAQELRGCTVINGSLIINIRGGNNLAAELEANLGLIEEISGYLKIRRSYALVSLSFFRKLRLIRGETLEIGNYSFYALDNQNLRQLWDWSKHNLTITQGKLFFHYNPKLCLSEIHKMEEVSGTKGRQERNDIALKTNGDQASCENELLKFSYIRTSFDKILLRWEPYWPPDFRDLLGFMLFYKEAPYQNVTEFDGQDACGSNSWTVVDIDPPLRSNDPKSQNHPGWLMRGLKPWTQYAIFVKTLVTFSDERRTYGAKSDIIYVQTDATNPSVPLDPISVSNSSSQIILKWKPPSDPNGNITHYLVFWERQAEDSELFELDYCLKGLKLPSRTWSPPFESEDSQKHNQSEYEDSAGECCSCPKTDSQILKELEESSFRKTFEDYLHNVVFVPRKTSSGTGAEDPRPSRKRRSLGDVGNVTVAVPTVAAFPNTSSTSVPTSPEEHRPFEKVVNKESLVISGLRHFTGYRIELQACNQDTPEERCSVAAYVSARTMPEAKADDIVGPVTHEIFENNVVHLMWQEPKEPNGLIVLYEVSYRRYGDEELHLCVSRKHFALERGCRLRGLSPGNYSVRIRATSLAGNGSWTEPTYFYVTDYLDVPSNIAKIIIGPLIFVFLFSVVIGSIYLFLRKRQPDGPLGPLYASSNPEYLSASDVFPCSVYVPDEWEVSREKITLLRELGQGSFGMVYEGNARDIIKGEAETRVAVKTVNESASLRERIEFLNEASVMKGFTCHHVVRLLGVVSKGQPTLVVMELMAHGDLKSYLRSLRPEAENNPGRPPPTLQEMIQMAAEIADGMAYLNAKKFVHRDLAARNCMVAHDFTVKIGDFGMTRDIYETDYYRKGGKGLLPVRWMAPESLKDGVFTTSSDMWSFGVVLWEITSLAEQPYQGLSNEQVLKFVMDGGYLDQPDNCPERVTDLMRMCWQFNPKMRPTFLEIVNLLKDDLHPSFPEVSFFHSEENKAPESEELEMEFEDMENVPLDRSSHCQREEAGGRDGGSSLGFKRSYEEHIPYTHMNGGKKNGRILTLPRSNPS

O=C(O)c1sc2cc(F)sc2c1Cl [PF-07208254, 3-chloro-5-fluorothieno[3,2-b]thiophene-2-carboxylic acid]
ATP = 10 uM % Inhibition PF-07208254 (PI4KA): 8.2%
ATP = 1 mM % Inhibition PF-07208254 (CHEK1): 4.3%
ATP = Km % Inhibition PF-07208254 (CHEK1): 4.6%
ATP = Km % Inhibition PF-07208254 (Rsk2): -0.7%
ATP = 1 mM % Inhibition PF-07208254 (MAPK14): 4.0%
ATP = Km % Inhibition PF-07208254 (MAPK14): 3.0%
ATP = 1 mM % Inhibition PF-07208254 (SRC): -4.8%
ATP = Km % Inhibition PF-07208254 (SRC): 5.6%
ATP = 1 mM % Inhibition PF-07208254 (IRAK4): -2.1%
ATP = Km % Inhibition PF-07208254 (IRAK4): 6.2%
ATP = Km % Inhibition PF-07208254 (MSK1): 2.7%
ATP = 1 mM % Inhibition PF-07208254 (MYLK2): -0.1%
ATP = Km % Inhibition PF-07208254 (MYLK2): -3.6%
ATP = Km % Inhibition PF-07208254 [1]: 2.3%
ATP = Km % Inhibition PF-07208254 (PIK3C3): 7.3%
ATP = Km % Inhibition PF-07208254 (HER4): -11.4%
ATP = 1 mM % Inhibition PF-07208254 (INSR): 0.0%
ATP = Km % Inhibition PF-07208254 (INSR): 3.1%
ATP = Km % Inhibition PF-07208254 [2]: 4.8%
ATP = Km % Inhibition PF-07208254 (PRKDC): 8.3%
ATP = Km % Inhibition PF-07208254 [3]: 1.8%
ATP = Km % Inhibition PF-07208254 (MAPKAPK5): 6.6%
ATP = 1 mM % Inhibition PF-07208254 (CAMK2A): -0.3%
ATP = Km % Inhibition PF-07208254 (CAMK2A): 6.8%
ATP = Km % Inhibition PF-07208254 (CSK tyrosine Kinase): 2.9%
ATP = 1 mM % Inhibition PF-07208254 (KDR): 5.6%
ATP = Km % Inhibition PF-07208254 (KDR): 1.1%

CCC1(COc2ccc(-c3csc(-c4ccccc4C(=O)O)n3)cn2)CC1 [PF-07247685, 2-(4-{6-[(1-ethylcyclopropyl)methoxy]pyridin-3-yl}-1,3-thiazol-2-yl)benzoic acid]
ATP = 10 uM % Inhibition PF-07247685 (PI4KA): -3.1%
ATP = 1 mM % Inhibition PF-07247685 (CHEK1): 4.5%
ATP = Km % Inhibition PF-07247685 (CHEK1): -3.1%
ATP = Km % Inhibition PF-07247685 (Rsk2): -1.6%
ATP = 1 mM % Inhibition PF-07247685 (MAPK14): 7.1%
ATP = Km % Inhibition PF-07247685 (MAPK14): 3.5%
ATP = 1 mM % Inhibition PF-07247685 (SRC): -1.0%
ATP = Km % Inhibition PF-07247685 (SRC): 17.3%
ATP = 1 mM % Inhibition PF-07247685 (IRAK4): 2.9%
ATP = Km % Inhibition PF-07247685 (IRAK4): -0.9%
ATP = Km % Inhibition PF-07247685 (MSK1): -1.4%
ATP = 1 mM % Inhibition PF-07247685 (MYLK2): 1.7%
ATP = Km % Inhibition PF-07247685 (MYLK2): 1.4%
ATP = Km % Inhibition PF-07247685 [1]: -1.5%
ATP = Km % Inhibition PF-07247685 (PIK3C3): 3.0%
ATP = Km % Inhibition PF-07247685 (HER4): 7.2%
ATP = 1 mM % Inhibition PF-07247685 (INSR): -0.4%
ATP = Km % Inhibition PF-07247685 (INSR): 3.4%
ATP = Km % Inhibition PF-07247685 [2]: -0.0%
ATP = Km % Inhibition PF-07247685 (PRKDC): 5.4%
ATP = Km % Inhibition PF-07247685 [3]: 2.2%
ATP = Km % Inhibition PF-07247685 (MAPKAPK5): 2.3%
ATP = 1 mM % Inhibition PF-07247685 (CAMK2A): 3.5%
ATP = Km % Inhibition PF-07247685 (CAMK2A): 2.8%
ATP = Km % Inhibition PF-07247685 (CSK tyrosine Kinase): 4.3%
ATP = 1 mM % Inhibition PF-07247685 (KDR): 0.1%
ATP = Km % Inhibition PF-07247685 (KDR): 2.0%
